Data published in US4501755A, “Isoflavones useful as anti-inflammatory agents” (Pennwalt Corporation, priority 1982, dated 1985).
Structures can show the parent of a compound that is named as a salt.

test system: carrageenan-induced paw edemas of test rats; assay: carrageenan-induced paw edema (anti-inflammatory activity); type: in vivo, Male, Sprague-Dawley rats; settings: 50 mg/kg p.o.; carrageenan injected 2 hours after dosing, paw volume measured 3 hours later; control group paw volume as 100% edema
Description: These properties were determined by carrageenan-induced paw edemas of test rats. Male, Sprague-Dawley rats (Blue Spruce Farm) were ordered at 124-140 g, housed for one week, and allowed food and water ad libitum. At the time of the experiments, only rats weighing 160-200 g were used.
All compounds were dissolved or suspended in a 0.5% water solution of Methocel and orally administered to groups of six rats each. Control rats received Methocel only. Two hours later, paw edema was induced by subcutaneous injection into the plantar surface of the right hind paw of 0.1 ml of a 1.0% homogenized suspension of carrageenan.
Immediately, the volume of the paw was measured by immersing it in mercury to above the lateral mateolus. The mercury in a glass cylinder 22 mm in diameter and 60 mm deep was connected at the bottom of the cylinder by a column of water to a Statham transducer (model P23BB), range 0-5 cm of mercury pressure. The volume was recorded electronically on a Beckman recorder, R511. Three hours later, the inflamed paw volume was measured again, and the change in volume was recorded for each group. The percent inhibition of edema was calculated using the control group paw volume as 100% edema, i.e.,

Row | SMILES | % Inhibition of Edema
1 | CC(C)NCC(O)COc1ccc2c(=O)c(-c3ccccc3)c(C(F)(F)F)oc2c1 (stereo not drawn) [Example 4, 7-(2-hydroxy-3-isopropylaminopropoxy)-2-trifluoromethylisoflavone hydrochloride] | 31%
2 | CC(C)NCC(O)COc1ccc2c(=O)c(-c3ccccc3)c(C(C)C)oc2c1 (stereo not drawn) [Example 5, 7-(2-hydroxy-3-isopropylaminopropoxy)-2-isopropylisoflavone maleate] | 29%
3 | CC(C)NCC(O)COc1ccc2c(=O)c(-c3ccccc3)coc2c1 (stereo not drawn) [Example 1, 7-(2-hydroxy-3-isopropylaminopropoxy)-3-phenylchromone hydrochloride] | 45%
